Assay results from paper PMC10041525, “New Dual Inhibitors of Bacterial Topoisomerases with Broad-Spectrum Antibacterial Activity and In Vivo Efficacy against Vancomycin-Intermediate Staphylococcus aureus” (Journal of Medicinal Chemistry, 2023).
“And” between values parts separate entries of the source, which are not always exact repeats. Equal entries are not always repeated.

Key:
P. aeruginosa ATCC 27853 = experiment: IHMA QC MIC; type: cell-based
H. influenzae ATCC 49766 = experiment: IHMA QC MIC; type: cell-based
Description: (§1) Supplement jm2c01905_si_004.xlsx, sheet "QC" | column: MIC [µg/mL]

S. pneumoniae ATCC 49619 [1] = experiment: IHMA QC MIC; type: cell-based
Description: as §1

[2] = test system: N. gonorrhoeae ATCC 49226; experiment: IHMA QC MIC; type: cell-based; settings: QC strain N. gonorrhoeae ATCC 49226, test date 2021-11-18
Description: as §1

H. influenzae ATCC 49247 = experiment: IHMA QC MIC; type: cell-based
Description: as §1

E. faecalis ATCC 29212 [3] = experiment: IHMA QC MIC; type: cell-based
Description: as §1

[4] = test system: N. gonorrhoeae ATCC 49226; parameters: method as in earlier work; settings: QC range for N. gonorrhoeae ATCC 49226, ref CLSI; cited from earlier work
E. faecalis ATCC 29212 [5] = test system: E. faecalis ATCC 29212; parameters: method as in earlier work; settings: QC range for E. faecalis ATCC 29212, ref CLSI; cited from earlier work
[6] = test system: Neisseria gonorrhoeae (n = 12); experiment: MIC broth microdilution at IHMA Europe; type: cell-based
E. faecium (n = 13) = experiment: MIC broth microdilution at IHMA Europe; type: cell-based
S. pneumoniae ATCC 49619 [7] = test system: S. pneumoniae ATCC 49619; parameters: method as in earlier work; settings: QC range for S. pneumoniae ATCC 49619, ref CLSI; cited from earlier work
E. coli ATCC 25922 = experiment: IHMA QC MIC; type: cell-based
S. pneumoniae (n = 12) = experiment: MIC broth microdilution at IHMA Europe; type: cell-based
[8] = test system: Haemophilus influenzae (n = 14); experiment: MIC broth microdilution at IHMA Europe; type: cell-based, H. influenzae

Substance: penicillin
- MIC (P. aeruginosa ATCC 27853; QC strain P. aeruginosa ATCC 27853, test date 2021-11-11): >32 µg/mL and 32 µg/mL
- MIC (P. aeruginosa ATCC 27853; QC strain P. aeruginosa ATCC 27853, test date 2021-11-26): >32 µg/mL
- MIC (H. influenzae ATCC 49766; QC strain H. influenzae ATCC 49766, test date 2021-11-11): 0.25 µg/mL
- MIC (H. influenzae ATCC 49766; QC strain H. influenzae ATCC 49766, test date 2021-11-26): 0.25 µg/mL
- MIC (S. pneumoniae ATCC 49619 [1]; QC strain S. pneumoniae ATCC 49619, test date 2021-11-11): 0.25 µg/mL
- MIC (S. pneumoniae ATCC 49619 [1]; QC strain S. pneumoniae ATCC 49619, test date 2021-11-26): 0.25 µg/mL
- MIC [2]: 0.25 µg/mL
- MIC (H. influenzae ATCC 49247; QC strain H. influenzae ATCC 49247, test date 2021-11-11): 4 µg/mL and 8 µg/mL
- MIC (H. influenzae ATCC 49247; QC strain H. influenzae ATCC 49247, test date 2021-11-26): 4 µg/mL
- MIC (E. faecalis ATCC 29212 [3]; QC strain E. faecalis ATCC 29212, test date 2021-11-11): 2 µg/mL
- MIC (E. faecalis ATCC 29212 [3]; QC strain E. faecalis ATCC 29212, test date 2021-11-26): 2 µg/mL
- MIC, CLSI Range [4]: 0,25 - 1 µg/mL
- MIC, CLSI Range (E. faecalis ATCC 29212 [5]): 1 to 4 µg/mL
- Cumulative % at MIC ([6]; MIC 0.5 µg/mL): 33.3%
- No. of isolates at MIC ([6]; MIC 0.5 µg/mL): 2
- Cumulative % at MIC ([6]; MIC 1 µg/mL): 50.0%
- No. of isolates at MIC ([6]; MIC 1 µg/mL): 2
- Cumulative % at MIC ([6]; MIC 2 µg/mL): 75.0%
- No. of isolates at MIC ([6]; MIC 2 µg/mL): 3
- Cumulative % at MIC ([6]; MIC >16 µg/mL): 100.0%
- No. of isolates at MIC ([6]; MIC >16 µg/mL): 2
- Cumulative % at MIC ([6]; MIC […]): 16.7%
- No. of isolates at MIC ([6]; MIC […]): 2
- Cumulative % at MIC ([6]; MIC […] µg/mL): 83.3%
- No. of isolates at MIC ([6]; MIC […] µg/mL): 1
- MIC ([6]; isolate IHMA 1123853): 4 µg/mL
- MIC ([6]; isolate IHMA 1130935): 0.25 µg/mL
- MIC ([6]; isolate IHMA 1130989): 0.25 µg/mL
- MIC ([6]; isolate IHMA 1130991): 2 µg/mL
- MIC ([6]; isolate IHMA 1137292): 1 µg/mL
- MIC ([6]; isolate IHMA 1145734): 2 µg/mL
- MIC ([6]; isolate IHMA 1145735): >16 µg/mL
- MIC ([6]; isolate IHMA 1165897): >16 µg/mL
- MIC ([6]; isolate IHMA 1194748): 0.5 µg/mL
- MIC ([6]; isolate IHMA 1194750): 0.5 µg/mL
- MIC ([6]; isolate IHMA 1546199): 2 µg/mL
- MIC ([6]; isolate IHMA 1546215): 1 µg/mL
- MIC (E. faecium (n = 13); E. faecium IHMA N° 1764866): >32 µg/mL
- MIC (E. faecium (n = 13); E. faecium IHMA N° 1765436): >32 µg/mL
- MIC (E. faecium (n = 13); E. faecium IHMA N° 1765746): >32 µg/mL
- MIC (E. faecium (n = 13); E. faecium IHMA N° 1893573): >32 µg/mL
- MIC (E. faecium (n = 13); E. faecium IHMA N° 1893846): >32 µg/mL
- MIC (E. faecium (n = 13); E. faecium IHMA N° 1893942): >32 µg/mL
- MIC (E. faecium (n = 13); E. faecium IHMA N° 1894055): >32 µg/mL
- MIC (E. faecium (n = 13); E. faecium IHMA N° 1897027): >32 µg/mL
- MIC (E. faecium (n = 13); E. faecium IHMA N° 1897101): >32 µg/mL
- MIC (E. faecium (n = 13); E. faecium IHMA N° 1904592): >32 µg/mL
- MIC (E. faecium (n = 13); E. faecium IHMA N° 2075051): >32 µg/mL
- MIC (E. faecium (n = 13); E. faecium IHMA N° 2077718): >32 µg/mL
- MIC (E. faecium (n = 13); E. faecium IHMA N° 2083787): >32 µg/mL
- Cumulative % at MIC (E. faecium (n = 13); MIC >32 µg/mL): 100.0%
- No. of isolates at MIC (E. faecium (n = 13); MIC >32 µg/mL): 13
- MIC, CLSI Range (S. pneumoniae ATCC 49619 [7]): 0,25 - 1 µg/mL
- MIC (E. coli ATCC 25922; QC strain E. coli ATCC 25922, test date 2021-11-11): 32 µg/mL and 16 µg/mL
- MIC (E. coli ATCC 25922; QC strain E. coli ATCC 25922, test date 2021-11-26): 32 µg/mL
- Cumulative % at MIC (S. pneumoniae (n = 12); MIC 0.5 µg/mL): 25.0%
- No. of isolates at MIC (S. pneumoniae (n = 12); MIC 0.5 µg/mL): 2
- Cumulative % at MIC (S. pneumoniae (n = 12); MIC 1 µg/mL): 41.7%
- No. of isolates at MIC (S. pneumoniae (n = 12); MIC 1 µg/mL): 2
- Cumulative % at MIC (S. pneumoniae (n = 12); MIC 2 µg/mL): 83.3%
- No. of isolates at MIC (S. pneumoniae (n = 12); MIC 2 µg/mL): 5
- Cumulative % at MIC (S. pneumoniae (n = 12); MIC […] µg/mL): 100.0%
- No. of isolates at MIC (S. pneumoniae (n = 12); MIC […] µg/mL): 2
- Cumulative % at MIC (S. pneumoniae (n = 12); MIC ≤0.03 µg/mL): 8.3%
- No. of isolates at MIC (S. pneumoniae (n = 12); MIC ≤0.03 µg/mL): 1
- MIC (S. pneumoniae (n = 12); S. pneumoniae IHMA N° 1775387): 2 µg/mL
- MIC (S. pneumoniae (n = 12); S. pneumoniae IHMA N° 1776057): 1 µg/mL
- MIC (S. pneumoniae (n = 12); S. pneumoniae IHMA N° 1785617): 4 µg/mL
- MIC (S. pneumoniae (n = 12); S. pneumoniae IHMA N° 1800765): 0.5 µg/mL
- MIC (S. pneumoniae (n = 12); S. pneumoniae IHMA N° 1811259): 1 µg/mL
- MIC (S. pneumoniae (n = 12); S. pneumoniae IHMA N° 1831562): ≤0,03 µg/mL
- MIC (S. pneumoniae (n = 12); S. pneumoniae IHMA N° 1902609): 2 µg/mL
- MIC (S. pneumoniae (n = 12); S. pneumoniae IHMA N° 1979675): 2 µg/mL
- MIC (S. pneumoniae (n = 12); S. pneumoniae IHMA N° 1991963): 2 µg/mL
- MIC (S. pneumoniae (n = 12); S. pneumoniae IHMA N° 2057487): 2 µg/mL
- MIC (S. pneumoniae (n = 12); S. pneumoniae IHMA N° 2073087): 4 µg/mL
- MIC (S. pneumoniae (n = 12); S. pneumoniae IHMA N° 2117109): 0.5 µg/mL
- MIC ([8]; H. influenzae IHMA N° 1227715): 32 µg/mL
- MIC ([8]; H. influenzae IHMA N° 1241620): 16 µg/mL
- MIC ([8]; H. influenzae IHMA N° 1244149): 32 µg/mL
- MIC ([8]; H. influenzae IHMA N° 1249803): 4 µg/mL
- MIC ([8]; H. influenzae IHMA N° 1254355): 4 µg/mL
- MIC ([8]; H. influenzae IHMA N° 1258580): 16 µg/mL
- MIC ([8]; H. influenzae IHMA N° 1262734): 16 µg/mL
- MIC ([8]; H. influenzae IHMA N° 1272723): 16 µg/mL
- MIC ([8]; H. influenzae IHMA N° 1286846): 16 µg/mL
- MIC ([8]; H. influenzae IHMA N° 1337530): 32 µg/mL
- MIC ([8]; H. influenzae IHMA N° 1440085): 16 µg/mL
- MIC ([8]; H. influenzae IHMA N° 1479509): 16 µg/mL
- MIC ([8]; H. influenzae IHMA N° 1952952): 8 µg/mL
- MIC ([8]; H. influenzae IHMA N° 2047461): >32 µg/mL
- Cumulative % at MIC ([8]; MIC […] µg/mL): 71.4%
- No. of isolates at MIC ([8]; MIC […] µg/mL): 7
- Cumulative % at MIC ([8]; MIC 32 µg/mL): 92.9%
- No. of isolates at MIC ([8]; MIC 32 µg/mL): 3
- Cumulative % at MIC ([8]; MIC >32 µg/mL): 100.0%
- No. of isolates at MIC ([8]; MIC >32 µg/mL): 1
